Experimental data taken from patent US20260158011A1 (Achieve Life Sciences, Inc., priority 2023, published 2026).
Read-outs that look alike come from different tables or passages of the source.

System: adult daily cigarette smokers
[1] = drug reduction Day 35, first Insomnia listing, pooled blinded
[2] = drug reduction Day 35, pooled blinded
[3] = drug reduction Day 35, second Insomnia listing, pooled blinded
[4] = drug reduction Day 42, pooled blinded
[5] = drug reduction Day 49, pooled blinded
[6] = drug reduction Day 55, pooled blinded
[7] = drug reduction Day 58, pooled blinded
[8] = drug reduction Day 63, pooled blinded
[9] = follow up period, start day 86, resolution day 87, pooled blinded
[10] = follow up period, start day 87, resolution day 90, pooled blinded
[11] = follow up period, start day 87, resolution day 96, pooled blinded
[12] = follow up period, start day 102, resolution day 105, pooled blinded
[13] = follow up period, start day 104, resolution day 105, pooled blinded
[14] = follow up period, start day 107, resolution day 111, pooled blinded
[15] = follow up period, start day 112, resolution day 113, pooled blinded
[16] = follow up period, start day 115, resolution day 120, pooled blinded
[17] = follow up period, start day 119, resolution day 139, pooled blinded
[18] = follow up period, start day 146, no resolution day, pooled blinded
[19] = follow up period, start day 148, resolution day 152, pooled blinded
[20] = follow up period, start day 151, resolution day 161, pooled blinded
[21] = follow up period, start day 161, resolution day 161, pooled blinded
[22] = follow up period, start day 180, no resolution day, pooled blinded

Method: Subjects are randomized to one of the three arms A, B, or C. In Arm A, subjects are treated with a placebo for 12 weeks plus behavioral support. In Arm B, subjects are treated with 3.0 mg cytisinicline TID for 6 weeks followed by a placebo for 6 weeks plus behavioral support. In Arm C, subjects are treated with 3.0 mg cytisinicline TID for 12 weeks plus behavioral support.
The safety objectives of the study will be the following: • To evaluate the safety profile of 3.0 mg TID cytisinicline compared to placebo (e.g., Arm B versus Arm A and Arm C versus Arm A); • To compare the safety profiles of Arm B subjects versus Arm C subjects with respect to adverse events occurring after Week 6 on the study.
The population for this study will be male or female adults who are daily cigarette smokers, intending to quit smoking, and are willing to set a quit date that is within 5 to 7 days of the start of treatment. Study treatment will start the day after randomization.
Safety assessments at clinic visits will occur on Day 2 and Day 7 during Week 1 and then weekly throughout the Treatment Period. Laboratory hematology and chemistry assessments will be made on Day 7, Week 6, and Week 12 (End of Treatment “EOT”) during the Treatment Period. Any ongoing adverse events at Week 12 will be followed until resolved or determined to be chronic. The end of study is defined as the last follow-up visit (up to the Week 24 visit) for the last subject.
The Treatment Period will begin on the day after randomization. Study treatment will be blinded, and subjects will take one study tablet three times during the day, approximately 5 hours apart. Subjects randomly assigned to Arm A will take one placebo tablet at each dosing per day for 12 weeks. Arm B subjects will take one cytisinicline tablet at each dosing per day for the first 6 weeks followed by one placebo tablet at each dosing per day for the last 6 weeks. Arm C subjects will take one cytisinicline tablet at each dosing per day for 12 weeks.
Laboratory (hematology and chemistry) evaluations will be performed at the Week 1, Week 6, and Week 12 clinic visits using a central laboratory.
Safety will be assessed by consideration of all adverse events reported by or elicited from the subject and abnormalities detected on hematology and serum chemistry tests. Worsening of other pre-existing medical conditions and any changes to concomitant medications/treatments will also be taken into account in this evaluation.
Routine laboratory safety samples will be analyzed at screening and at clinic visits as identified in Table 15 for each subject by a central laboratory. […] Clinically significant abnormalities occurring during the study will be recorded on the AE page. The reference ranges for laboratory parameters will also be entered in the database and filed in the Investigator site file.
Safety assessments will include reported adverse events, laboratory test results, and vital signs. Safety variables will be summarized for the Safety Analysis Set (SAS), defined as all randomized subjects who take at least one dose of study drug.
Adverse events (AEs) will be coded using the MedDRA dictionary. Coding will include system organ class (SOC) and preferred term (PT). All verbatim descriptions and coded terms will be listed for all AEs.

Structure (SMILES): O=c1cccc2n1C[C@@H]1CNC[C@H]2C1 [cytisine, (−)-Cytisine]
- Dose reduction for Insomnia: Outcome [1]: Recovered/Resolved
- Dose reduction for Insomnia: Relatedness [1]: Probable
- Dose reduction for Insomnia: Severity [1]: Moderate
- Dose reduction for Burning Eyes: Outcome [2]: Recovered/Resolved
- Dose reduction for Burning Eyes: Relatedness [2]: Possible
- Dose reduction for Burning Eyes: Severity [2]: Moderate
- Dose reduction for Headache: Outcome [2]: Recovered/Resolved
- Dose reduction for Headache: Relatedness [2]: Possible
- Dose reduction for Headache: Severity [2]: Moderate
- Dose reduction for Nausea: Outcome [2]: Recovered/Resolved
- Dose reduction for Nausea: Relatedness [2]: Possible
- Dose reduction for Nausea: Severity [2]: Moderate
- Dose reduction for Sinus Congestion: Outcome [2]: Recovered/Resolved
- Dose reduction for Sinus Congestion: Relatedness [2]: Possible
- Dose reduction for Sinus Congestion: Severity [2]: Moderate
- Dose reduction for Sinus Pressure: Outcome [2]: Recovered/Resolved
- Dose reduction for Sinus Pressure: Relatedness [2]: Possible
- Dose reduction for Sinus Pressure: Severity [2]: Moderate
- Dose reduction for Insomnia: Outcome [3]: Recovered/Resolved
- Dose reduction for Insomnia: Relatedness [3]: Possible
- Dose reduction for Insomnia: Severity [3]: Moderate
- Dose reduction for Difficulty Falling Asleep: Outcome [4]: Recovered/Resolved
- Dose reduction for Difficulty Falling Asleep: Relatedness [4]: Possible
- Dose reduction for Difficulty Falling Asleep: Severity [4]: Moderate
- Dose reduction for Restless Leg Syndrome: Outcome [5]: Recovered/Resolved
- Dose reduction for Restless Leg Syndrome: Relatedness [5]: Possible
- Dose reduction for Restless Leg Syndrome: Severity [5]: Moderate
- Dose reduction for Memory Loss: Outcome [6]: Recovered/Resolved
- Dose reduction for Memory Loss: Relatedness [6]: Possible
- Dose reduction for Memory Loss: Severity [6]: Moderate
- Dose reduction for Bilateral Foot Swelling: Outcome [7]: Recovered/Resolved
- Dose reduction for Bilateral Foot Swelling: Relatedness [7]: Possible
- Dose reduction for Bilateral Foot Swelling: Severity [7]: Mild
- Dose reduction for Facial Swelling (Forehead Area): Outcome [7]: Recovered/Resolved
- Dose reduction for Facial Swelling (Forehead Area): Relatedness [7]: Possible
- Dose reduction for Facial Swelling (Forehead Area): Severity [7]: Mild
- Dose reduction for Right Hand Swelling: Outcome [7]: Recovered/Resolved
- Dose reduction for Right Hand Swelling: Relatedness [7]: Possible
- Dose reduction for Right Hand Swelling: Severity [7]: Mild
- Dose reduction for Headache: Outcome [8]: Recovered/Resolved
- Dose reduction for Headache: Relatedness [8]: Possible
- Dose reduction for Headache: Severity [8]: Mild
- Serious adverse event Post Surgical Complications: Causality [9]: Not
- Serious adverse event Post Surgical Complications: Outcome [9]: Fatal
- Serious adverse event Post Surgical Complications: Severity/Intensity [9]: Severe
- Serious adverse event Worsening Fatigue: Causality [10]: Not
- Serious adverse event Worsening Fatigue: Outcome [10]: Recovered/Resolved
- Serious adverse event Worsening Fatigue: Severity/Intensity [10]: Moderate
- Serious adverse event Coronary Atherosclerosis: Causality [11]: Not
- Serious adverse event Coronary Atherosclerosis: Outcome [11]: Recovered/Resolved
- Serious adverse event Coronary Atherosclerosis: Severity/Intensity [11]: Severe
- Serious adverse event Acute Cholecystitis: Causality [12]: Not
- Serious adverse event Acute Cholecystitis: Outcome [12]: Recovered/Resolved
- Serious adverse event Acute Cholecystitis: Severity/Intensity [12]: Moderate
- Serious adverse event Transient Ischemic Attack: Causality [13]: Not
- Serious adverse event Transient Ischemic Attack: Outcome [13]: Recovered/Resolved
- Serious adverse event Transient Ischemic Attack: Severity/Intensity [13]: Severe
- Serious adverse event Perforated Bowel: Causality [14]: Not
- Serious adverse event Perforated Bowel: Outcome [14]: Recovered/Resolved
- Serious adverse event Perforated Bowel: Severity/Intensity [14]: Severe
- Serious adverse event Abscess on Right Groin Area: Causality [15]: Not
- Serious adverse event Abscess on Right Groin Area: Outcome [15]: Recovered/Resolved
- Serious adverse event Abscess on Right Groin Area: Severity/Intensity [15]: Severe
- Serious adverse event COPD Exacerbation: Causality [16]: Not
- Serious adverse event COPD Exacerbation: Outcome [16]: Recovered/Resolved
- Serious adverse event COPD Exacerbation: Severity/Intensity [16]: Severe
- Serious adverse event Sepsis: Causality [16]: Unlikely
- Serious adverse event Sepsis: Outcome [16]: Recovered/Resolved
- Serious adverse event Sepsis: Severity/Intensity [16]: Severe
- Serious adverse event Pneumonia: Causality [17]: Not
- Serious adverse event Pneumonia: Outcome [17]: Recovered/Resolved
- Serious adverse event Pneumonia: Severity/Intensity [17]: Severe
- Serious adverse event Acute Kidney Injury Superimposed to Chronic Kidney Disease: Causality [18]: Unlikely
- Serious adverse event Acute Kidney Injury Superimposed to Chronic Kidney Disease: Outcome [18]: Not Recovered/Not
- Serious adverse event Acute Kidney Injury Superimposed to Chronic Kidney Disease: Severity/Intensity [18]: Severe
- Serious adverse event Ureterolithiasis: Causality [18]: Unlikely
- Serious adverse event Ureterolithiasis: Outcome [18]: Not Recovered/Not
- Serious adverse event Ureterolithiasis: Severity/Intensity [18]: Severe
- Serious adverse event Pneumonia: Causality [19]: Not
- Serious adverse event Pneumonia: Outcome [19]: Recovered/Resolved
- Serious adverse event Pneumonia: Severity/Intensity [19]: Severe
- Serious adverse event Dyspnea: Causality [20]: Unlikely
- Serious adverse event Dyspnea: Outcome [20]: Recovered/Resolved
- Serious adverse event Dyspnea: Severity/Intensity [20]: Severe
- Serious adverse event Stab Wound: Causality [21]: Not
- Serious adverse event Stab Wound: Outcome [21]: Fatal
- Serious adverse event Stab Wound: Severity/Intensity [21]: Severe
- Serious adverse event Dyspnea: Causality [22]: Not
- Serious adverse event Dyspnea: Outcome [22]: Not Recovered/Not
- Serious adverse event Dyspnea: Severity/Intensity [22]: Severe
- Psychiatric adverse event Abnormal dreams, % (pooled blinded data): (7.5) %
- Psychiatric adverse event Acute stress disorder, % (pooled blinded data): (0.1) %
- Psychiatric adverse event Adjustment disorder with depressed mood, % (pooled blinded data): (0.1) %
- Psychiatric adverse event Affect lability, % (pooled blinded data): (0.1) %
- Psychiatric adverse event Anhedonia, % (pooled blinded data): (0.5) %
- Psychiatric adverse event Anxiety, % (pooled blinded data): (2.5) %
- Psychiatric adverse event Attention deficit hyperactivity disorder, % (pooled blinded data): (0.1) %
- Psychiatric adverse event Bipolar disorder, % (pooled blinded data): (0.1) %
- Psychiatric adverse event Bruxism, % (pooled blinded data): (0.1) %
- Psychiatric adverse event Depressed mood, % (pooled blinded data): (0.5) %
- Psychiatric adverse event Depression, % (pooled blinded data): (2.0) %
- Psychiatric adverse event Initial insomnia, % (pooled blinded data): (0.3) %
- Psychiatric adverse event Insomnia, % (pooled blinded data): (10.2) %
- Psychiatric adverse event Irritability, % (pooled blinded data): (1.7) %
- Psychiatric adverse event Major depression, % (pooled blinded data): (0.1) %
- Psychiatric adverse event Mood swings, % (pooled blinded data): (0.1) %
- Psychiatric adverse event Nightmare, % (pooled blinded data): (1.1) %
- Psychiatric adverse event Panic attack, % (pooled blinded data): (0.3) %
- Psychiatric adverse event Paranoia, % (pooled blinded data): (0.1) %
- Psychiatric adverse event Post-traumatic stress disorder, % (pooled blinded data): (0.1) %
- Psychiatric adverse event Restlessness, % (pooled blinded data): (0.3) %
- Psychiatric adverse event Sleep disorder, % (pooled blinded data): (0.5) %
- Psychiatric adverse event Somnambulism, % (pooled blinded data): (0.1) %
- Psychiatric adverse event Stress, % (pooled blinded data): (0.1) %
- Psychiatric adverse event Suicidal ideation, % (pooled blinded data): (0.1) %
- Psychiatric adverse event Suicide attempt, % (pooled blinded data): (0.3) %
- Psychiatric disorders (any psychiatric reported adverse event), % (pooled blinded data): (22.9) %
- Abnormal lab AE related to study drug, Elevated ALT Level: Outcome of Adverse Event (start Day 29, dose not changed): Recovered/Resolved
- Abnormal lab AE related to study drug, Elevated ALT Level: Severity (start Day 29, dose not changed): Mild
- Abnormal lab AE related to study drug, Elevated AST Level: Outcome of Adverse Event (start Day 29, dose not changed): Recovered/Resolved
- Abnormal lab AE related to study drug, Elevated AST Level: Severity (start Day 29, dose not changed): Mild
- Abnormal lab AE related to study drug, Elevated Hemoglobin: Outcome of Adverse Event (start Day 85): Recovered/Resolved
- Abnormal lab AE related to study drug, Low White Blood Count: Outcome of Adverse Event (start Day 85): Not Recovered/Not
- Abnormal lab AE related to study drug, Elevated ALT: Outcome of Adverse Event (start Day 169): Not Recovered/Not
- Abnormal lab AE related to study drug, Elevated ALT: Severity (start Day 169): Moderate
- Abnormal lab AE related to study drug, Low White Blood Count: Parameter value at AE (value at screening 5.1 × 10^9/L, start Day 85): 2.5e+09 L⁻¹
- Abnormal lab AE related to study drug, Elevated ALT Level: Parameter value at AE (value at screening 25 IU/L, start Day 29, dose not changed): 195 IU/L
- Abnormal lab AE related to study drug, Elevated AST Level: Parameter value at AE (value at screening 29 IU/L, start Day 29, dose not changed): 129 IU/L
- Abnormal lab AE related to study drug, Elevated ALT: Parameter value at AE (value at screening 50 IU/L, start Day 169): 82 IU/L
- Abnormal lab AE related to study drug, Elevated Hemoglobin: Parameter value at AE (value at screening 158 g/L, start Day 85): 130 g/L
